“Also recorded” adds a separate entry of the source. Like-named read-outs stand apart in the source and are kept apart here.
Legend:
[1] = Pharmacokinetic study in healthy adults of single vs. multiple oral doses of colchicine tablets (Example 1); assay type: in vivo, human; details: for concentration at 25 day: 0.6 mg;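 as to all read-outs here: each subject received both dosing periods, single and repeated oral dosing, with a 14-day washout interval between periods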
Method: Subjects received a light breakfast served 60 minutes following dose administration in the morning and the evening dose was administered 90 minutes after an evening meal on Days 15 through 24 only. […] Study periods were separated by a 14-day washout. Following the single dose and the last dose of the multiple dose regimen (beginning on the mornings of Day 1 and Day 25, respectively), blood samples were collected (6 mL each) from each subject within 1 hour prior to dosing and after dose administration at study hours 0.5, 1, 1.5, 2, 3, 4, 6, 8, 10, 12, and 24 (while confined) and 36, 48, 72, and 96 (on an outpatient basis).

CYP2C9/19 = details: Dvorak 2000, preliminary; 1 and 10 μM colchicine; cited from earlier work
[2] = cited from earlier work
clinical = details: human, in vivo, 0.6 mg
Method: A single-center, open-label, one sequence, two-period study was carried out in 23 healthy subjects. […] After completing a 21-day washout period, all subjects received 250 mg of clarithromycin administered twice daily for 7 days (Days 22 through 29), a sufficient dose and duration to inhibit CYP3A4 and Pgp.

[3] = colchicine administration; cited from earlier work
[4] = Colchicine elimination half-life after multiple oral doses in young healthy volunteers; assay type: in vivo; details: human, plasma; multiple oral doses 0.6 mg twice daily, young healthy volunteers (mean age 25 to 28 years)
[5] = colchicine 0.6 mg twice a day, two randomized clinical trials, patients initiating urate lowering therapy; cited from earlier work
[6] = mean, multiple (b.i.d.) oral doses 0.6 mg x 10 days, Day 25, healthy adults N=13
[7] = mean, single oral dose 0.6 mg, healthy adults N=13
[8] = median, multiple (b.i.d.) oral doses 0.6 mg x 10 days, Day 25, healthy adults N=13
[9] = median, single oral dose 0.6 mg, healthy adults N=13
[10] = co-administration of clarithromycin vs colchicine alone
[11] = colchicine 0.6 mg with steady-state clarithromycin vs colchicine alone
[12] = mean, Day 1, single-dose colchicine 0.6 mg alone, healthy adults n=23

## COc1cc2c(c(OC)c1O)-c1ccc(OC)c(=O)cc1[C@@H](NC(C)=O)CC2 [2-DMC, 2-O-demethylcolchicine]
[1]; after colchicine 0.6 mg single and multiple doses, LOQ 0.2 ng/mL
  metabolite plasma concentrations: < 0.2 ng/mL

## COc1c(O)cc2c(c1OC)-c1ccc(OC)c(=O)cc1[C@@H](NC(C)=O)CC2 [3-DMC, 3-O-demethylcolchciine]
[1]; after colchicine 0.6 mg single and multiple doses, 13 subjects
  detectable metabolite plasma concentration: only one sample from 1 subject (of 13 subjects) had a detectable
CYP2C9/19
  CYP2C9/19 protein levels (immunoblotting): decrease

## CC[C@H]1OC(=O)[C@H](C)[C@@H](O[C@H]2C[C@@](C)(OC)[C@@H](O)[C@H](C)O2)[C@H](C)[C@@H](O[C@@H]2O[C@H](C)C[C@H](N(C)C)[C@H]2O)[C@](C)(OC)C[C@@H](C)C(=O)[C@H](C)[C@@H](O)[C@]1(C)O [Clarithromycin]
[2]; in vivo, po
  oral dose excreted in feces: About 40%
[2]; oral 250 mg every 12 hours
  dose excreted as unchanged drug in urine: Approximately 20%
[2]; oral 500 mg every 12 hours
  dose excreted as unchanged drug in urine: ~30%
[2]; oral administration
  absolute bioavailability: approximately 50%
[2]; with food
  increase of peak concentration by food: about 24%

## COc1cc2c(c(OC)c1OC)-c1ccc(OC)c(=O)cc1[C@@H](NC(C)=O)CC2 [Colchicine, (−)-N-[(7S,12aS)-1,2,3,10-tetramethoxy-9-oxo-5,6,7,9-tetrahydrobenzo[a]heptalen-7-yl]-acetamide]
clinical
  AUC0-inf: 16 ng·h/mL
  AUC0-t: 12 ng·h/mL
  Vd/F: 432 L
[1]; 0.6 mg b.i.d., most subjects
  attainment of steady state (trough plasma concentrations): by approximately the eighth day of dosing
[1]; after a single 0.6 mg dose
  plasma concentrations 24 hours post-dose: no longer quantifiable 24 hours post-dose in all but 1 subject; also recorded: not detectable by 24 hours post-dose
[1]; calculated following a single oral dose, stated not an accurate estimate
  elimination half-life: approximately 5 hours
[1]; human, in vivo, Day 25, read-out: mean Cmin concentration
  concentration at 25 day: 0.907 ng/mL
[1]; human, in vivo, po, mean, multiple (b.i.d.) oral doses 0.6 mg x 10 days, Day 25, healthy adults N=13, read-out: Cmin
  concentration at 25 day: 0.907 ng/mL
[1]; human, in vivo, po, median, multiple (b.i.d.) oral doses 0.6 mg x 10 days, Day 25, healthy adults N=13, read-out: Cave
  concentration at 25 day: 1.19 ng/mL
[1]; human, in vivo, po, median, multiple (b.i.d.) oral doses 0.6 mg x 10 days, Day 25, healthy adults N=13, read-out: Cmin
  concentration at 25 day: 0.903 ng/mL
[1]; human, in vivo, mean (% CV), 0.6-mg single dose, Day 1, N=13
  Vd/F: 540 L
[1]; [6]
  AUC0-τ: 29.05623 ng·h/mL
  Cave: 1.21068 ng/mL
  Kel: 0.03 h⁻¹
[1]; [7]
  AUC0-inf: 12.2819 ng·h/mL
  AUC0-t: 10.50854 ng·h/mL
  Cmax: 2.47077 ng/mL
  Kel: 0.1829 h⁻¹
[1]; [8]
  AUC0-inf: 54.11343 ng·h/mL
  AUC0-τ: 28.45215 ng·h/mL
  Kel: 0.03 h⁻¹
  T1/2: 26.51 h
[1]; [9]
  AUC0-t: 10.5609 ng·h/mL
  Kel: 0.1992 h⁻¹
[1]; single dose or multiple dosing
  secondary colchicine peak in individual subject data: no subject experienced a secondary colchicine peak
[1]; steady state, Day 23 and Day 24
  Cmin prior to morning dose higher than Cmin prior to evening dose: approximately 12%
[3]
  FMF patients that do not show a beneficial response: 5-10%
[4]
  half-life: 26.6 to 31.2 h
[10]
  decrease in apparent clearance (CL/F) of colchicine: 75%
  increase in plasma elimination half-life (t1/2) of colchicine: 233%
[11]
  increase in mean colchicine AUC0-t: 250%
  increase in mean colchicine Cmax: 167%
[12]
  CL/F: 46.8 L/h
  Cmax: 3 ng/mL
  Ke: 0.132 h⁻¹
  t1/2: 9 h
[5]
  frequency of gout flares: decreased the frequency of gout flares
CYP2C9/19
  CYP2C9/19 protein levels (immunoblotting): appeared to decrease

Reference: patent US8093296B2 (Mutual Pharmaceutical Company, Inc., priority 2008, dated 2012)
